Source: patent US20190117675A1, “Compositions And Methods To Treat And/Or Prevent Vision Disorders Of The Lens Of The Eye” (Helix Holding Company, priority 2014, published 2019)

Legend:
[1] = tested on: aggregates of various WT and mutated crystallins; test: In vitro protein assay: dissociation of preformed crystallin aggregates (turbidity, soluble protein, EM); format: biochemical; details: 37° C.; for dissociation of aggregates of various WT and mutated crystallins: in vitro protein assay, 50 μM sterol in 50 μM DPPS liposome
Description: Evaluation of the effect of lanosterol on the dissolution of crystallin aggregates by turbidity. Crystallin aggregates were formed by incubating 5mgml21 protein solution at 60° C. for 2 h (α-crystallins) or 37° C. for 48 h (β- and γ-crystallins) in the presence of 1M guanidine chloride. The preformed aggregates were re-suspended in PBS at a final protein concentration of 0.2 mg/ml and were treated with 500 μM sterols in 500 μM DPPC liposome and incubated at 37° C. for 24 h. Aggregates treated with 500 μM DPPC liposome only were used as the controls.
The α-crystallin aggregates were formed by incubating 5 mg/ml protein solutions at 60° C. for 48 h in the presence of 1 M guanidine chloride. The β- and γ-crystallin aggregates were prepared by incubating the protein solutions at 37° C. and pH 3 for 48 h. The preformed aggregates were re-suspended in PBS with a final protein concentration of 0.1 mg/ml. The re-suspended aggregates were treated by 50 μM sterols in 50 μM DPPS liposome and incubated at 37° C. for 144 h. The aggregates treated by 50 μM DPPS liposome were used as the controls. The supernatant and precipitation fractions were separated by centrifugation. The protein concentrations in the supernatant fraction were determined by absorbance at 280 nm and the percentages of the soluble proteins were calculated from three independent repetitions.
The recombinant his-tagged WT and mutated β- and γ-crystallin proteins were overexpressed in E. coli Rosetta and purified by Ni-NTA affinity column followed by gel filtration chromatography using the same protocol as those described elsewhere 13,14,16,18. The overexpression and purification of the non-tagged αA- and αB-crystallins were performed as described previously 19. The purity of the proteins were estimated to be above 95% as evaluated by one homogeneous band on 12.5% SDS-PAGE, 10% native-PAGE and a single peak in the size-exclusion chromatographyprofile. The protein concentration was determined according to the Bradford method by using BSA as the standard 20. All protein samples were prepared in 20 mM PBS buffer containing 150 mM NaCl, 1 mM EDTA and 1 mM DTT.
The aggregates of the WT and mutated αA- and αB-crystallin proteins were obtained by heating the proteins solutions containing 1 M guanidine chloride (ultrapure, Sigma) with a concentration of 5 mg/ml at 60° C. for 48 h. The aggregates of the WT and mutated β- and γ-crystallins were prepared by heating the protein solutions at pH 3 and 37° C. for 48 h. The formation of aggregates was confirmed by turbidity (absorbance at 400 nm) and transmission electron microscope (EM) measurements. The preformed aggregates were resuspended in 20 mM PBS with a final concentration of 0.1 mg/ml (approximately 5 μM). The resuspended aggregates were treated by 50 μM lanosterol or cholesterol in liposomes formed by 50 μM DPPS at 37° C. After 72 h treatment, the protein solutions were used for negative-stained EM observations. After 144 h incubation, the protein solutions were used for turbidity measurements and determinations of protein concentrations in the soluble fractions. The soluble proteins were determined by centrifuge the protein solutions to separate the supernatant and precipitation fractions. Then the protein concentration in the supernatant was determined by the Bradford method. The EM samples were prepared by depositing the protein solutions onto a freshly glow-discharged carbon coated copper grid. […]

[2] = tested on: various cataract-causing crystallin mutants; test: Aggresome / intracellular aggregate formation of crystallin mutants in transfected cells (confocal microscopy); format: cell-based; details: 0-40 μM sterols in 2% DMSO, 2 h treatment then 12 h culture; lanosterol effect dose-dependent
Description: The effect of lanosterol or cholesterol on the aggresome formation of various crystallins was studied by transfecting the cells using plasmids containing various crystallin genes. The cells were cultivated for 24 h to enable efficient protein expression and aggresome formation. Then the cells were treated with 0-40 μM sterols in 2% DMSO. The cells treated with 2% DMSO were used as the control. After treatment for 2 h, the cells were moved to fresh DMEM medium containing 10% fetal bovine serum and further cultivated for 12 h. Then the cells were used for microscopy analysis.
The microscopy samples were prepared by washing the slips by phosphate buffered saline (PBS) three times. The cells were fixed with 4% paraformaldehyde for 40 min followed by three times washing with PBS. The cells were permeabilized with 0.1% Triton X-100 (Sigma) in PBS for 10 min and blocked with 5% normal goat serum in PBS for 1 h at 37° C. Immunostaining was carried out by adding mouse anti-Flag antibody (1:500) or anti-p62 antibody (1:200) in PBS buffer containing 5% normal goat serum and cultivated for 1 h at 37° C. Then the slips were washed three times with PBS, and further incubated with Alexa 649-conjugated goat anti-mouse IgG (1:250) for 1 h at ambient temperature. The nuclei were counterstained with Hoechst 33342. The mounted cells were analyzed using a Carl Zeiss LSM 710 confocal microscope.

Structure (SMILES): CC(C)=CCC[C@@H](C)[C@H]1CC[C@@]2(C)C3=C(CC[C@]12C)[C@@]1(C)CC[C@H](O)C(C)(C)[C@@H]1CC3 [Lanosterol]
- dissolution of crystallin aggregates by turbidity ([1]; 500 μM sterols in 500 μM DPPC liposome, 24 h, 0.2 mg/ml protein): could dissociate the aggregates
- dissociation of aggregates of various WT and mutated crystallins [1]: can dissociate the preformed amyloid-like fibrils/aggregates
- dissociation of aggregates of various WT and mutated crystallins ([1]; listed as lanosterol): could dissociate the aggregates
- intracellular aggregation of various cataract-causing crystallin mutants [2]: significantly reduced intracellular aggregation
